Source: ChEMBL document CHEMBL2034862, “Exploring the binding sites of glycogen synthase kinase 3. Identification and characterization of allosteric modulation cavities” (J Med Chem, 2011)
Active and inactive are the calls of the source. The rule behind the calls is not given here.

What was measured:
[1] = target: T1, Glycogen synthase kinase-3 beta (Homo sapiens, UniProt P49841); experiment: Non-competitive inhibition of human recombinant GSK3beta using GS2 as substrate after 10 mins by Glow type luminescence analysis in presence of 1 uM ATP
Target sequence in this assay (P49841 whole entry, looked up): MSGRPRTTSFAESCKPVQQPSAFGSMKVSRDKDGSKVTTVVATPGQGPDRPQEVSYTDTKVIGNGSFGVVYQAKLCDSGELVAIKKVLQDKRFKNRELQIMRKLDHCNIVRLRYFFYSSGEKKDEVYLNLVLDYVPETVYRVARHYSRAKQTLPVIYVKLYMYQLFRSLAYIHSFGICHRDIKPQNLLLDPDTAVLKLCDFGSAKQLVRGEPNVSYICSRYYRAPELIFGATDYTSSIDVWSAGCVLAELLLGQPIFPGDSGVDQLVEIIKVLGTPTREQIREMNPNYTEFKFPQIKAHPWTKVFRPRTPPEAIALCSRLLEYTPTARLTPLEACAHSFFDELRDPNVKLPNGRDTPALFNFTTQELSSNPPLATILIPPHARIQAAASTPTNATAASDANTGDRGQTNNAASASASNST

[2] = target: T1, Glycogen synthase kinase-3 beta; experiment: Reversible inhibition of human recombinant GSK3beta using GS2 as substrate after 10 mins by Glow type luminescence analysis
Target sequence in this assay (P49841 whole entry, looked up): as above

[3] = target: T1, Glycogen synthase kinase-3 beta; experiment: Non-competitive inhibition of human recombinant GSK3beta using GS2 as substrate after 10 mins by Glow type luminescence analysis
Target sequence in this assay (P49841 whole entry, looked up): as above

[4] = target: T1, Glycogen synthase kinase-3 beta; experiment: Non-competitive inhibition of human recombinant GSK3beta using GS2 as substrate after 10 mins by Glow type luminescence analysis in presence of 1 to 50 uM ATP
Target sequence in this assay (P49841 whole entry, looked up): as above

[5] = target: T1, Glycogen synthase kinase-3 beta; experiment: Inhibition of human recombinant GSK3beta incubated for 30 mins by Kinase Glo luminescent kinase assay
Target sequence in this assay (P49841 whole entry): as the sequence (P49841 whole entry, looked up) above

`CCCCCCCCCCCC(=O)NNC(=O)c1c(O)c2ccccc2n(CC)c1=O` was tested, and the inhibition [1] was “Active”, the inhibition [2] was “Active” and the inhibition [3] was “Active”. The inhibition [4] was “Active” and the IC50 [5] was 3.01 µM.
